Test results published in the supplement of paper PMC11368000.

Experiments:
Conditions in all cases: exposure time: 90 min
1083 [1] = donor line of iPSC-derived cardiomyocytes; test: POD (EC10) for decrease in total cell number (cytotoxicity) vs vehicle; higher = less potent (higher point of departure)
Procedure: (§1)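 Human iPSC-derived cardiomyocytes from 16 donors were exposed for 90 min at 37 °C to each PFAS at 0.1, 1, 10 and 100 µM in 0.5% DMSO, 384-well plates. Kinetic Ca2+ flux (FLIPR) and Hoechst nuclei counts were normalised to vehicle wells and fitted with a hierarchical Bayesian Hill model to give donor-specific PODs: EC05 for beat-rate increase or decrease and for decay-to-rise ratio increase (QT proxy), EC95 for peak-frequency loss (asystole), EC10 for total cell number loss. 0.03 µM is the lower bound.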

11235 [2] = donor line of iPSC-derived cardiomyocytes; test: as above
Procedure: as §1

1368 [3] = donor line of iPSC-derived cardiomyocytes; test: as above
Procedure: as §1

1392 = donor line of iPSC-derived cardiomyocytes; test: as above
Procedure: as §1

1434 [4] = donor line of iPSC-derived cardiomyocytes; test: as above
Procedure: as §1

1535 = donor line of iPSC-derived cardiomyocytes; test: as above
Procedure: as §1

1565 = donor line of iPSC-derived cardiomyocytes; test: as above
Procedure: as §1

20084 [5] = donor line of iPSC-derived cardiomyocytes; test: as above
Procedure: as §1

30145 [6] = donor line of iPSC-derived cardiomyocytes; test: as above
Procedure: as §1

1083 [7] = test: POD (EC05) for decrease in beat frequency (negative chronotrope) vs vehicle; higher = less potent (higher point of departure)
In short: (§2)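 Cardiomyocytes derived from human iPSCs of 16 donors were grown 14 days in gelatin-coated 384-well plates, loaded 2 h with a fluorescent Ca2+ dye, then exposed for 90 min at 37 °C to final concentrations of 0.1, 1, 10 and 100 µM in 0.5% DMSO. A FLIPR Tetra recorded Ca2+ flux at 8 frames/s for 100 s before and after exposure. Points of departure for each donor were derived by hierarchical Bayesian Hill fitting of vehicle-normalised beat frequency, decay-to-rise ratio or peak frequency. The thresholds applied were a 5% change, or a 95% loss for peak frequency.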

1118 = donor line of iPSC-derived cardiomyocytes; test: as above
In short: as §2

11235 [8] = test: as above
In short: as §2

1309 = donor line of iPSC-derived cardiomyocytes; test: as above
In short: as §2

1368 [9] = test: as above
In short: as §2

1434 [10] = test: as above
In short: as §2

1531 = donor line of iPSC-derived cardiomyocytes; test: as above
In short: as §2

20032 = donor line of iPSC-derived cardiomyocytes; test: as above
In short: as §2

20084 [11] = test: as above
In short: as §2

30145 [12] = test: as above
In short: as §2

30171 = donor line of iPSC-derived cardiomyocytes; test: as above
In short: as §2

Structure (SMILES)	POD vs vehicle 1083 [1]	POD vs vehicle 11235 [2]	POD vs vehicle 1368 [3]	POD vs vehicle 1392	POD vs vehicle 1434 [4]	POD vs vehicle 1535	POD vs vehicle 1565	POD vs vehicle 20084 [5]	POD vs vehicle 30145 [6]	POD vs vehicle 1083 [7]	POD vs vehicle 1118	POD vs vehicle 11235 [8]	POD vs vehicle 1309	POD vs vehicle 1368 [9]	POD vs vehicle 1434 [10]	POD vs vehicle 1531	POD vs vehicle 20032	POD vs vehicle 20084 [11]	POD vs vehicle 30145 [12]	POD vs vehicle 30171
OCC(F)(F)C(F)(F)C(F)(F)C(F)(F)C(F)(F)C(F)(F)F [6:1 Fluorotelomer alcohol]	> 100 µM	> 100 µM	> 100 µM	> 100 µM	13.1 µM	> 100 µM	> 100 µM	> 100 µM	> 100 µM	24.6 µM	0.554 µM	21.5 µM	> 100 µM	74.9 µM	21.9 µM	> 100 µM	> 100 µM	> 100 µM	> 100 µM	24.3 µM
O=C(O)C(F)(F)OC(F)(F)C(F)(F)OC(F)(F)C(=O)O [Perfluoro-3,6-dioxaoctane-1,8-dioic_acid]	> 100 µM	> 100 µM	> 100 µM	> 100 µM	> 100 µM	> 100 µM	> 100 µM	> 100 µM	> 100 µM	> 100 µM	> 100 µM	> 100 µM	> 100 µM	> 100 µM	> 100 µM	> 100 µM	> 100 µM	> 100 µM	> 100 µM	> 100 µM
OCCC(F)(F)C(F)(F)C(F)(F)C(F)(F)C(F)(F)C(F)(F)F [6:2 Fluorotelomer alcohol]	> 100 µM	> 100 µM	> 100 µM	> 100 µM	> 100 µM	> 100 µM	> 100 µM	> 100 µM	> 100 µM	58.7 µM	31.5 µM	> 100 µM	> 100 µM	> 100 µM	> 100 µM	> 100 µM	> 100 µM	> 100 µM	> 100 µM	> 100 µM
O=S(=O)(O)CCC(F)(F)C(F)(F)C(F)(F)C(F)(F)C(F)(F)C(F)(F)C(F)(F)C(F)(F)F [8:2 Fluorotelomer sulfonic acid]	> 100 µM	> 100 µM	> 100 µM	> 100 µM	> 100 µM	> 100 µM	> 100 µM	> 100 µM	> 100 µM	> 100 µM	> 100 µM	0.121 µM	33.9 µM	> 100 µM	12.8 µM	1.06 µM	34.5 µM	0.768 µM	15.3 µM	6.39 µM
O=C(O)CCC(F)(F)C(F)(F)C(F)(F)F [3:3 Fluorotelomer carboxylic acid]	> 100 µM	> 100 µM	> 100 µM	> 100 µM	> 100 µM	> 100 µM	> 100 µM	> 100 µM	> 100 µM	> 100 µM	> 100 µM	> 100 µM	> 100 µM	> 100 µM	> 100 µM	> 100 µM	> 100 µM	> 100 µM	> 100 µM	> 100 µM
OCCC(F)(F)C(F)(F)C(F)(F)C(F)(F)C(F)(F)C(F)(F)C(F)(F)C(F)(F)F [8:2 Fluorotelomer alcohol]	> 100 µM	> 100 µM	> 100 µM	> 100 µM	> 100 µM	> 100 µM	> 100 µM	> 100 µM	> 100 µM	> 100 µM	> 100 µM	> 100 µM	> 100 µM	> 100 µM	> 100 µM	> 100 µM	> 100 µM	> 100 µM	> 100 µM	> 100 µM
OCC(F)(F)C(F)(F)C(F)(F)F [Heptafluorobutanol]	> 100 µM	> 100 µM	> 100 µM	> 100 µM	> 100 µM	> 100 µM	> 100 µM	> 100 µM	> 100 µM	> 100 µM	> 100 µM	> 100 µM	> 100 µM	> 100 µM	> 100 µM	> 100 µM	> 100 µM	> 100 µM	> 100 µM	> 100 µM
O=C(O)C(F)(F)C(F)(F)C(F)(F)C(F)(F)C(F)(F)F [Perfluorohexanoic_acid]	> 100 µM	> 100 µM	> 100 µM	> 100 µM	> 100 µM	> 100 µM	> 100 µM	> 100 µM	> 100 µM	> 100 µM	> 100 µM	> 100 µM	> 100 µM	> 100 µM	> 100 µM	> 100 µM	> 100 µM	> 100 µM	> 100 µM	> 100 µM
